Results on seven cell lines are retold here after the supplement of paper PMC10307832.

What all share (experiment): relative viability (nuclei count vs DMSO), 5 days (fraction); higher = more cells survive
Compound in assay [1]: CC1=C(N=C(N=C1N)[C@H](CC(=O)N)NC[C@@H](C(=O)N)N)C(=O)N[C@@H]([C@H](C2=CN=CN2)OC3C(C(C(C(O3)CO)O)O)OC4C(C(C(C(O4)CO)O)OC(=O)N)O)C(=O)N[C@H](C)[C@H]([C@H](C)C(=O)N[C@@H]([C@@H](C)O)C(=O)NCCC5=NC(=CS5)C6=NC(=CS6)C(=O)NCCC[S+](C)C)O [Bleomycin] + Cc1cc(Nc2cc(N3CCN(C)CC3)nc(Sc3ccc(NC(=O)C4CC4)cc3)n2)n[nH]1 [Tozasertib] (partner 0.1 µM)
As to conditions: main component drawn. Put shortly: (§1)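 Cells from lung cancer lines were seeded into 1536-well plates and, one day later, dosed by pin tool. Treatments were either a single drug or a fixed dose of an anchor drug with five library-drug doses (not always all listed) in √10 steps. After 5 days, nuclei were stained in a one-step fixation (final 0.05% Triton X-100, 1% formaldehyde, 1 ug/ml Hoechst) and counted on 4× images, and relative viability is the treated-to-vehicle nuclei ratio, as the median of duplicate plates.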

Compound in assay [2]: COc1cc([C@@H]2c3cc4c(cc3[C@@H](O[C@@H]3O[C@@H]5CO[C@@H](C)O[C@H]5[C@H](O)[C@H]3O)[C@H]3COC(=O)[C@H]23)OCO4)cc(OC)c1O [Etoposide] + CC(C)C[C@H](NC(=O)[C@H](Cc1ccccc1)NC(=O)c1cnccn1)B(O)O [Bortezomib] (partner 0.002 µM)
In a few lines: as §1

Compound in assay [3]: COc1cc([C@@H]2c3cc4c(cc3[C@@H](O[C@@H]3O[C@@H]5CO[C@@H](C)O[C@H]5[C@H](O)[C@H]3O)[C@H]3COC(=O)[C@H]23)OCO4)cc(OC)c1O [Etoposide] + COc1cc2c(Oc3ccc(NC(=O)C4(C(=O)Nc5ccc(F)cc5)CC4)cc3F)ccnc2cc1OCCCN1CCOCC1 [Foretinib] (partner 0.25 µM)
Put shortly: as §1

Compound in assay [4]: COc1cc([C@@H]2c3cc4c(cc3[C@@H](O[C@@H]3O[C@@H]5CO[C@@H](C)O[C@H]5[C@H](O)[C@H]3O)[C@H]3COC(=O)[C@H]23)OCO4)cc(OC)c1O [Etoposide] + C[C@]1(O)C[C@@H](c2nc(-c3ccc4ccc(-c5ccccc5)nc4c3)c3c(N)nccn32)C1 [Linsitinib] (partner 1 µM)
In a few lines:
as §1

On to HCC-78, for which the relative viability in assay [1] (first compound 0.01 µM) was 0.335; in assay [1] (first compound 0.03162 µM), 0.356; in assay [1] (first compound 0.1 µM), 0.357; in assay [1] (first compound 0.3162 µM), 0.269; in assay [1] (first compound 1 µM), 0.355; in assay [2] (first compound 0.01 µM), 0.487. Further, the relative viability in assay [2] (first compound 0.03162 µM) came out at 0.5; in assay [2] (first compound 0.1 µM), 0.35; in assay [2] (first compound 0.3162 µM), 0.314; in assay [2] (first compound 1 µM) it was 0.229; in assay [3] (first compound 0.01 µM), 0.476; in assay [3] (first compound 0.03162 µM), 0.532. The relative viability was 0.438 in assay [3] (first compound 0.1 µM); 0.404 in assay [3] (first compound 0.3162 µM); 0.252 in assay [3] (first compound 1 µM); 0.436 in assay [4] (first compound 0.01 µM); 0.525 in assay [4] (first compound 0.03162 µM); 0.255 in assay [4] (first compound 0.1 µM). The values for the relative viability in assay [4] (first compound 0.3162 µM) and in assay [4] (first compound 1 µM) were 0.322 and 0.181, respectively.
Regarding NCI-H1755, the relative viability in assay [1] (first compound 0.01 µM) is 0.54; in assay [1] (first compound 0.03162 µM) it was 0.54; in assay [1] (first compound 0.1 µM), 0.636; in assay [1] (first compound 0.3162 µM), 0.468; in assay [1] (first compound 1 µM), 0.333; in assay [2] (first compound 0.01 µM) it was 0.995. Besides, the relative viability in assay [2] (first compound 0.03162 µM) came out at 1.02; in assay [2] (first compound 0.1 µM) it was 0.887; in assay [2] (first compound 0.3162 µM), 0.9; in assay [2] (first compound 1 µM) it was 0.969; in assay [3] (first compound 0.01 µM) it was 0.958; in assay [3] (first compound 0.03162 µM) it was 0.974. The relative viability in assay [3] (first compound 0.1 µM) amounted to 0.919; in assay [3] (first compound 0.3162 µM) it was 0.883; in assay [3] (first compound 1 µM) it was 0.869; in assay [4] (first compound 0.01 µM), 0.985; in assay [4] (first compound 0.03162 µM), 1.03; in assay [4] (first compound 0.1 µM), 0.974. The relative viability in assay [4] (first compound 0.3162 µM) was 0.951; in assay [4] (first compound 1 µM), 0.858.
NCI-H322M: the relative viability amounted to 0.424 in assay [1] (first compound 0.01 µM); 0.496 in assay [1] (first compound 0.03162 µM); 0.473 in assay [1] (first compound 0.1 µM); 0.396 in assay [1] (first compound 0.3162 µM); 0.38 in assay [1] (first compound 1 µM); 1.27 in assay [2] (first compound 0.01 µM). The relative viability in assay [2] (first compound 0.03162 µM) came to 1.22; in assay [2] (first compound 0.1 µM), 0.994; in assay [2] (first compound 0.3162 µM), 1.17; in assay [2] (first compound 1 µM) it was 1.07; in assay [3] (first compound 0.01 µM), 0.813; in assay [3] (first compound 0.03162 µM), 1. Also, the relative viability was 0.831 in assay [3] (first compound 0.1 µM); 0.864 in assay [3] (first compound 0.3162 µM); 0.483 in assay [3] (first compound 1 µM); 0.902 in assay [4] (first compound 0.01 µM); 0.993 in assay [4] (first compound 0.03162 µM); 0.727 in assay [4] (first compound 0.1 µM). Moreover, the relative viability in assay [4] (first compound 0.3162 µM) came out at 0.845; in assay [4] (first compound 1 µM), 0.565.
With PC-3 [JPC-3], the relative viability in assay [1] (first compound 0.01 µM) was found to be 0.799; in assay [1] (first compound 0.03162 µM), 0.813; in assay [1] (first compound 0.1 µM), 0.781; in assay [1] (first compound 0.3162 µM), 0.537; in assay [1] (first compound 1 µM) it was 0.492; in assay [2] (first compound 0.01 µM) it was 0.795. In addition, the relative viability is 0.756 in assay [2] (first compound 0.03162 µM); 0.93 in assay [2] (first compound 0.1 µM); 0.775 in assay [2] (first compound 0.3162 µM); 0.67 in assay [2] (first compound 1 µM); 0.947 in assay [3] (first compound 0.01 µM); 1.06 in assay [3] (first compound 0.03162 µM). For the same cell line, the relative viability in assay [3] (first compound 0.1 µM) is 1.06; in assay [3] (first compound 0.3162 µM), 0.906; in assay [3] (first compound 1 µM), 0.897; in assay [4] (first compound 0.01 µM), 0.965; in assay [4] (first compound 0.03162 µM), 0.991; in assay [4] (first compound 0.1 µM) it was 0.952. Besides, the relative viability in assay [4] (first compound 0.3162 µM) amounted to 0.933; in assay [4] (first compound 1 µM), 0.84.
On to NCI-H2405, for which the relative viability amounted to 0.703 in assay [1] (first compound 0.01 µM); 0.758 in assay [1] (first compound 0.03162 µM); 0.682 in assay [1] (first compound 0.1 µM); 0.475 in assay [1] (first compound 0.3162 µM); 0.398 in assay [1] (first compound 1 µM); 0.987 in assay [2] (first compound 0.01 µM). Also, the relative viability is 1.05 in assay [2] (first compound 0.03162 µM); 0.753 in assay [2] (first compound 0.1 µM); 0.531 in assay [2] (first compound 0.3162 µM); 0.746 in assay [2] (first compound 1 µM); 1.01 in assay [3] (first compound 0.01 µM); 1.08 in assay [3] (first compound 0.03162 µM). In addition, the relative viability in assay [3] (first compound 0.1 µM) stood at 1.05; in assay [3] (first compound 0.3162 µM), 0.899; in assay [3] (first compound 1 µM) it was 0.43; in assay [4] (first compound 0.01 µM), 0.791; in assay [4] (first compound 0.03162 µM), 0.96; in assay [4] (first compound 0.1 µM) it was 0.582. Further, the figures for the relative viability in assay [4] (first compound 0.3162 µM) and in assay [4] (first compound 1 µM) were 0.7 and 0.377, respectively.
Turning to NCI-H23, the relative viability is 0.208 in assay [1] (first compound 0.01 µM); 0.268 in assay [1] (first compound 0.03162 µM); 0.217 in assay [1] (first compound 0.1 µM); 0.161 in assay [1] (first compound 0.3162 µM); 0.135 in assay [1] (first compound 1 µM); 0.919 in assay [2] (first compound 0.01 µM). In addition, the relative viability came out at 1.15 in assay [2] (first compound 0.03162 µM); 0.516 in assay [2] (first compound 0.1 µM); 0.317 in assay [2] (first compound 0.3162 µM); 0.215 in assay [2] (first compound 1 µM); 0.924 in assay [3] (first compound 0.01 µM); 0.941 in assay [3] (first compound 0.03162 µM). In addition, the relative viability in assay [3] (first compound 0.1 µM) was 0.678; in assay [3] (first compound 0.3162 µM) it was 0.4; in assay [3] (first compound 1 µM), 0.242; in assay [4] (first compound 0.01 µM) it was 0.504; in assay [4] (first compound 0.03162 µM), 0.645; in assay [4] (first compound 0.1 µM), 0.364. The relative viability came to 0.409 in assay [4] (first compound 0.3162 µM) and 0.191 in assay [4] (first compound 1 µM).
Regarding EKVX, the relative viability in assay [1] (first compound 0.01 µM) was found to be 0.434; in assay [1] (first compound 0.03162 µM) it was 0.413; in assay [1] (first compound 0.1 µM), 0.365; in assay [1] (first compound 0.3162 µM), 0.191; in assay [1] (first compound 1 µM), 0.204; in assay [2] (first compound 0.01 µM), 1. Also, the relative viability in assay [2] (first compound 0.03162 µM) worked out at 1.18; in assay [2] (first compound 0.1 µM) it was 0.4; in assay [2] (first compound 0.3162 µM) it was 0.419; in assay [2] (first compound 1 µM), 0.372; in assay [3] (first compound 0.01 µM) it was 1.09; in assay [3] (first compound 0.03162 µM) it was 0.711. For the same cell line, the relative viability in assay [3] (first compound 0.1 µM) amounted to 0.448; in assay [3] (first compound 0.3162 µM) it was 0.237; in assay [3] (first compound 1 µM) it was 0.303; in assay [4] (first compound 0.01 µM) it was 0.979; in assay [4] (first compound 0.03162 µM) it was 0.978; in assay [4] (first compound 0.1 µM), 0.805. Besides, the relative viability in assay [4] (first compound 0.3162 µM) is 0.712; in assay [4] (first compound 1 µM), 0.399.
